# Columns and labels:
# Lung [1] = test: Drug level in rat lung at 2.3 mg/kg dosed via inhalation measured post cell suspension; format: ADME, organism-based; set-up: dose 2.3 mg/kg; conditions: in vivo, inhaled_or_intranasal, read-out: Drug uptake
# [2] = target: T1, Tyrosine-protein kinase ITK/TSK (Homo sapiens) (UniProt Q08881); test: Inhibition of human ITK assessed as ratio of Kinact to Ki
# T1 sequence (whole entry): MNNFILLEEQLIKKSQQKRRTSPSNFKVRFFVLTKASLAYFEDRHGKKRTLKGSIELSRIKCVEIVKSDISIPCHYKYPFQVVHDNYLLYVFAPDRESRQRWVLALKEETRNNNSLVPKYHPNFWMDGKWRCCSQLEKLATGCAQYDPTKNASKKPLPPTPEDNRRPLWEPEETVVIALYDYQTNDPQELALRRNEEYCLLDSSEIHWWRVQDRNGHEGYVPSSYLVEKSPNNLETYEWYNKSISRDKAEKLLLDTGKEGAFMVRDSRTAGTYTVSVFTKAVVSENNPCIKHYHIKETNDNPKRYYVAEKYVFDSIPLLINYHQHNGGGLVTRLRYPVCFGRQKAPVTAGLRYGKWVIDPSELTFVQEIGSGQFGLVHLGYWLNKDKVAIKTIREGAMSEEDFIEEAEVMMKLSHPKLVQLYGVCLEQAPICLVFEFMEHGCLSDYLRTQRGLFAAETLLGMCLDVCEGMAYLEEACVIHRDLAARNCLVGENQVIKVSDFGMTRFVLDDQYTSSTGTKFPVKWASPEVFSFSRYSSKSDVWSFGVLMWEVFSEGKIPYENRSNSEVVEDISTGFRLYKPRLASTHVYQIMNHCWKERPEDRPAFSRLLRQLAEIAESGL
# Lung [3] = test: Drug level in rat lung at 2.3 mg/kg dosed via inhalation measured post perfusion; format: ADME, organism-based; set-up: dose 2.3 mg/kg; conditions: in vivo, inhaled_or_intranasal, read-out: Drug uptake
# [4] = target: T2, Tyrosine-protein kinase ITK/TSK (Homo sapiens, UniProt Q08881); test: Inhibition of human ITK
# T2 sequence (Q08881 whole entry): T1 sequence (whole entry)
# [5] = target: Tyrosine-protein kinase BTK (Homo sapiens, UniProt Q06187); test: Inhibition of BTK (unknown origin) using ATP and Y5 Sox15 substrate mix incubated for 30 mins by fluorescence based assay
# Rattus norvegicus [6] = test: Induction of prolongation of micturition interval in orally dosed Sprague-Dawley rat model of 8-OH-DPAT induced overactive bladder by cystometric study; format: functional; conditions: po, read-out: MED
# Rattus norvegicus [7] = test: Binding affinity to 5HT1A receptor in Sprague-Dawley rat at 0.3 to 10 mg/kg, po after 2 to 8 hrs by PET imaging method; format: functional, organism-based; set-up: route oral
# [8] = Inhibition of human PDE isoforms
# [9] = target: cAMP and cAMP-inhibited cGMP 3',5'-cyclic phosphodiesterase 10A (Homo sapiens, UniProt Q9Y233); test: Inhibition of human PDE10A
# Sequence of cAMP and cAMP-inhibited cGMP 3',5'-cyclic phosphodiesterase 10A (Q9Y233 whole entry): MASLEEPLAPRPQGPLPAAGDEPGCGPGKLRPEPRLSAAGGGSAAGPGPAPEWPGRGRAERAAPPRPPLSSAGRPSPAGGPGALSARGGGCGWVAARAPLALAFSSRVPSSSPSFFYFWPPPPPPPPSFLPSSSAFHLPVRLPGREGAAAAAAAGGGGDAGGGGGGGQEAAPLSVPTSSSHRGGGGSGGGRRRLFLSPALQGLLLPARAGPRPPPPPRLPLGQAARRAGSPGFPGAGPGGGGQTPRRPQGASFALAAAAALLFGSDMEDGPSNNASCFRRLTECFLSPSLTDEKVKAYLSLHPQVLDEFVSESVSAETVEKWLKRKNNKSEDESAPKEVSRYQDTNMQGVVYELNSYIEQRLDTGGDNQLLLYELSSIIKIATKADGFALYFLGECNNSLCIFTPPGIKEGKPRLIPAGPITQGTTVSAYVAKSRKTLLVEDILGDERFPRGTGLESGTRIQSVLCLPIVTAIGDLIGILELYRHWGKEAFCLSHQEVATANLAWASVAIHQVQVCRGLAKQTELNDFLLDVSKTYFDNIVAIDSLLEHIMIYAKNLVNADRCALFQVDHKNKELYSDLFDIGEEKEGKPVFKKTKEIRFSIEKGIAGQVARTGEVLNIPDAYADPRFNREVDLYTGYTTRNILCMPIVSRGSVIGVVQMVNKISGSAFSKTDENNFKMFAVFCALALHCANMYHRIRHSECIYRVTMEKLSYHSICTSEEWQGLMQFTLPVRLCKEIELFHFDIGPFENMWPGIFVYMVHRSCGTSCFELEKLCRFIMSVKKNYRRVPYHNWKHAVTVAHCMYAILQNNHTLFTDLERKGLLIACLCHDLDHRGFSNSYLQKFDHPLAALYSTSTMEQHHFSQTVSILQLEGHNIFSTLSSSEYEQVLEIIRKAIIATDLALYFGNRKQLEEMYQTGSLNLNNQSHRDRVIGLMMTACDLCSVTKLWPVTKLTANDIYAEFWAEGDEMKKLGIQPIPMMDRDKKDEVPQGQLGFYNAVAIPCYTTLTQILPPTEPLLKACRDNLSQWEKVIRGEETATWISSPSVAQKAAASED
# Sequence of Tyrosine-protein kinase BTK (Q06187 whole entry): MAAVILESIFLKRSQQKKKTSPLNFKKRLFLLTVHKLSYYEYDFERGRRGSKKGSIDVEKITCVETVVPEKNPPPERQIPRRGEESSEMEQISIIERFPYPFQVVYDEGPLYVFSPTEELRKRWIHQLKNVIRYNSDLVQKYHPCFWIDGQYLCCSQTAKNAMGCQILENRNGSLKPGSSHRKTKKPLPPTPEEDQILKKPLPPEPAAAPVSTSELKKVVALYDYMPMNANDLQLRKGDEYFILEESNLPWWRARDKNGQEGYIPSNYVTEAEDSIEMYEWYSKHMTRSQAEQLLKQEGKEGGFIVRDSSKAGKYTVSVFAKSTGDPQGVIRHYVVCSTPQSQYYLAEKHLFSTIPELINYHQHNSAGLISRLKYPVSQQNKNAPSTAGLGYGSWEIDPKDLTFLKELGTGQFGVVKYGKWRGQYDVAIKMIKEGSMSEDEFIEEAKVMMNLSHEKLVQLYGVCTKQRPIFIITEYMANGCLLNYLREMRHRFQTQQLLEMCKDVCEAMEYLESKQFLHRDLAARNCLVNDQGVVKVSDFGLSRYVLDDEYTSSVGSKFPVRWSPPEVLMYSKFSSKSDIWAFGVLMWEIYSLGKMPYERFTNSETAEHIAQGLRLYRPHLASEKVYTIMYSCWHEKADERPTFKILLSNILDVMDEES
smiles,measurement,setting,value
C=CC(=O)N1CC[C@H](Nc2cc(CN[C@@H](C)C(C)(C)C)cc(Nc3nc4cccnc4s3)n2)C1,concentration,Lung [1],8 nM
same,Ratio,[2],520000 M⁻¹ s⁻¹
same,concentration,Lung [3],6 µM
same,IC50,[4],5 nM
C=CC(=O)Nc1cccc(N(C)c2nc(Nc3cccc(OCCCN(C)C(=O)CCCC(=O)NCCCOCCOCCOCCCNC(=O)CCCC[C@H]4SC[C@H]5NC(=O)N[C@H]54)c3)ncc2C)c1,IC50,[5],0.5 nM
CNC(=O)c1ccc2ccn(C3CCN(CCc4c(OC)ccc5c4OC(C)(C)CC5=O)CC3)c2c1.O=C(O)/C=C/C(=O)O,minimal effective dose,Rattus norvegicus [6],0.1 mg/kg
same,EC50,Rattus norvegicus [7],5.4 nM
Cc1nc2ccccc2nc1-c1cc2nc(N3CC[C@@H](F)C3)cc(N([11CH3])C3CCOCC3)n2n1,IC50,[8],> 1000 nM
same,IC50,[9],0.06 nM

# Source: ChEMBL document CHEMBL3397013, “Target engagement in lead generation” (Bioorg Med Chem Lett, 2015)
